Results from patent US20130259999A1, “METHOD FOR INHIBITING YEAST ACTIVITY” (PURAC BIOCHEM B.V., priority 2010, published 2013).
Marks after values point to notes of the source that are not given here.

Legend:
Candida albicans [1] = assay: Determination of the minimal inhibitor concentration (MIC) in liquid medium; type: cell-based; conditions: C. Albicans; liquid medium pH 3.5; OD 96 hours after inoculation
Method: (§1) Candida albicans was isolated from a commercial beverage, Saccharomyces cerevisiae (CBS 2190) and Zygosaccharomyces bailii (CBS 6708) were obtained from CBS (Centraalbureau voor Schimmelcultures).
(§2) Yeast cultures were grown in liquid medium (per liter: 5 gram filtered Malt Extract from Oxoid Ltd., England, 40 gram glucose and 5 gram Bacto Peptone from Becton Dickinson, USA, at pH 3.5 prepared according to the manufacturer instructions) in screw-capped tubes for at least 48 hours at 25° C.
(§3) For the determination of the MIC, liquid medium was prepared as described above with increasing amounts of inhibitor. 200 μl of each inhibitor-comprising medium was transferred to a panel of a sterile 96-well Microtiter plate. Completed well plates were stored at 4° C. until further use. For the inoculation of the inhibitor-containing liquid media 5 μl of a 72 to 84 hours grown culture was used. The optical density (OD) for every composition was measured 96 hours after inoculation.

[2] = test system: Saccharomyces cerevisiae (CBS 2190); assay: as above; type: cell-based; conditions: S. cerevisiae; liquid medium pH 3.5; OD 96 hours after inoculation
Method: as §1, §2, §3

[3] = test system: Zygosaccharomyces bailii (CBS 6708); assay: as above; type: cell-based; conditions: Z. bailii; liquid medium pH 3.5; OD 96 hours after inoculation
Method: as §1, §2, §3

Candida albicans [4] = assay: Combination tests: inhibition of yeast in model beverage; type: cell-based; conditions: C. Albicans, model beverage pH about 3.5, 96 hours
Method: as §1
(§4) Inhibition of yeast was evaluated for combinations of EGCG and polylysine or LAE.
(§5) Yeast cultures were grown in model beverage which contained per litter of demineralised water: 40 g of sucrose, 0.35 g of apple flavour (Givaudan), 8.3 g of apple juice concentrate (Gargill) and 1 g of citric acid. The pH was about 3.5. Cultures were grown in screw-capped tubes for at least 48 hours at 25° C.
(§6) The tests combining two components were carried out in sterile 96-well Microtiter plates. Model beverage was prepared as described above with increasing amounts of two different inhibitors. The concentrations of each inhibitor were presented in 8 equal concentration steps that ranged from 0 to 1-2 times the estimated MIC value of particular yeast for a particular inhibitor. 200 μl of each medium was transferred to a panel of a sterile 96-well Microtiter plate. Completed well plates were stored at 4° C. until further use. For the inoculation of this test 5 μl of a 72 to 84 hours grown culture was used. The OD for every composition was measured 96 hours after inoculation.

[5] = test system: Saccharomyces cerevisiae (CBS 2190); assay: as above; type: cell-based; conditions: S. cerevisiae, model beverage pH about 3.5, 96 hours
Method: as §1, §4, §5, §6

[6] = test system: Zygosaccharomyces bailii (CBS 6708); assay: as above; type: cell-based; conditions: Z. bailii, model beverage pH about 3.5, 96 hours
Method: as §1, §4, §5, §6

Saccharomyces cerevisiae = conditions: culture medium, WO 2009/031041; cited from earlier work
Kluyveromyces marxianus = conditions: culture medium, WO 2009/031041; cited from earlier work
[7] = EGCG 0.07 wt. %, average of two experiments

Compound | MIC (Candida albicans [1]) | MIC [2] | MIC [3] | Maximum OD (Candida albicans [4]; [7]) | Maximum OD [5, 7] | Maximum OD [6, 7] | Maximum OD (Candida albicans [4]; ε-polylysine 0.0005 wt. %) | Maximum OD ([6]; ε-polylysine 0.0005 wt. %) | Maximum OD (Candida albicans [4]; LAE 0.002 wt. %) | Maximum OD ([5]; LAE 0.001 wt. %) | Maximum OD ([6]; LAE 0.002 wt. %) | MIC (Saccharomyces cerevisiae) [ppm] | MIC (Kluyveromyces marxianus) [ppm]
O=C(O[C@@H]1Cc2c(O)cc(O)cc2O[C@@H]1c1cc(O)c(O)c(O)c1)c1cc(O)c(O)c(O)c1 [EGCG, Epigallocatechin gallate] | 9000 ppm | 5000 ppm | 2000 ppm | 0.40* | 0.28* | 0.28* | – | – | – | – | – | – | –
ε-Polylysine | >40* ppm | 30-80 ppm | >40* ppm | – | – | – | 0.32 | 0.40 | – | – | – | – | –
CCCCCCCCCCCC(=O)N[C@@H](CCCN=C(N)N)C(=O)OCC [LAE, lauric arginate] | >70* ppm | 30-80 ppm | >70* ppm | – | – | – | – | – | 0.30 | 0.19 | 0.38 | 24 | 7
